Reference: the CheMixHub ionic liquid set
± gives the uncertainty stated by the source.

Assay: xn = mol fraction of the nth substance listed

C[N+](C)(C)CCC[N+]1(C)CCCCC1.N#C[N-]C#N.N#C[N-]C#N + CO
100 kPa
Conditions	viscosity [mPa·s]
293.15 K, x1 = 0.5002	271 ± 31
293.15 K, x1 = 0.6001	585 ± 74
303.15 K, x1 = 0.2001	11.3 ± 1.1
303.15 K, x1 = 0.3002	28.5 ± 2.9
303.15 K, x1 = 0.5002	160 ± 17
323.15 K, x1 = 0.0999	2.73 ± 0.28
323.15 K, x1 = 0.3002	15.7 ± 1.6
333.15 K, x1 = 0.3999	24.9 ± 2.5

CCCC[P+](CCCC)(CCCC)CCCC.F[B-](F)(F)F + CC#N + C1COCO1
298.15 K, 100 kPa
Conditions	viscosity [mPa·s]
x1 = 0.0005495, x2 = 0.8436	0.41 ± 0.007
x1 = 0.0005755, x2 = 0.6431	0.471 ± 0.008
x1 = 0.0006287, x2 = 0.3754	0.532 ± 0.008
x1 = 0.0008217, x2 = 0.8434	0.414 ± 0.007
x1 = 0.0008656, x2 = 0.6429	0.476 ± 0.008
x1 = 0.0009366, x2 = 0.3753	0.537 ± 0.008
x1 = 0.001098, x2 = 0.8432	0.418 ± 0.007
x1 = 0.001156, x2 = 0.6427	0.481 ± 0.008
x1 = 0.00125, x2 = 0.3751	0.543 ± 0.008
x1 = 0.001375, x2 = 0.8429	0.422 ± 0.008
x1 = 0.001445, x2 = 0.6425	0.486 ± 0.008
x1 = 0.001564, x2 = 0.375	0.548 ± 0.008
x1 = 0.001651, x2 = 0.8427	0.426 ± 0.008
x1 = 0.00174, x2 = 0.6423	0.491 ± 0.008
x1 = 0.001878, x2 = 0.3749	0.554 ± 0.008
x1 = 0.001927, x2 = 0.8425	0.43 ± 0.008
x1 = 0.00203, x2 = 0.6421	0.496 ± 0.008
x1 = 0.002191, x2 = 0.3748	0.56 ± 0.008

CCCCCCCCCC(=O)O + CCCC[N+](CCCC)(CCCC)CCCC.[Cl-]
100 kPa
Conditions	electrical conductivity, x2 = 0.25 [S/m]	viscosity, x2 = 0.25 [mPa·s]	viscosity, x2 = 0.333 [mPa·s]
293.15 K	0.00575 ± 0.00058	201 ± 37	–
303.15 K	0.00886 ± 0.00089	135 ± 18	–
313.15 K	0.0133 ± 0.0013	93.3 ± 7.8	155 ± 18
323.15 K	0.0194 ± 0.0019	65.9 ± 2.6	–
333.15 K	0.0277 ± 0.0028	47.5 ± 1.6	–
343.15 K	–	–	39.5 ± 1.9

CCCCn1n[n+](CC)c2ccccc21.F[P-](F)(F)(F)(F)F + c1c[nH]cn1
101.3 kPa, x2 = 0.6993
Conditions	electrical conductivity [S/m]	viscosity [mPa·s]
343 K	1.1 ± 0.1	11 ± 2.2
353 K	1.4 ± 0.2	7.7 ± 1.5
363 K	1.8 ± 0.2	5.6 ± 1.1
373 K	2.2 ± 0.2	5.2 ± 1
383.1 K	2.9 ± 0.3	4.2 ± 0.8
393.1 K	3.2 ± 0.3	3.6 ± 0.7
403.1 K	3.8 ± 0.4	3.1 ± 0.6

CCCC(=O)[O-].OCC[NH2+]c1ccccc1 + O
303.15 K, 100 kPa
Conditions	electrical conductivity [S/m]
x2 = 0.0163	0.000469 ± 1.9e-05
x2 = 0.03811	0.00047 ± 1.9e-05
x2 = 0.05476	0.000471 ± 1.9e-05
x2 = 0.07271	0.000472 ± 1.9e-05

CCCCCCCCCCCCCC[P+](CCCCCC)(CCCCCC)CCCCCC.O=[N+]([O-])c1cn[n-]c1 + CCCCCC[n+]1ccn(C)c1.O=S(=O)([N-]S(=O)(=O)C(F)(F)F)C(F)(F)F
100 kPa
Conditions	viscosity [mPa·s]
278.15 K, x2 = 0.7	830 ± 110
293.15 K, x2 = 0.203	790 ± 100

CCCC[P+](CCCC)(CCCC)CCCC.[O-]c1cccnc1 + O=C=O
Conditions	viscosity [mPa·s]
293 K, 101 kPa, x2 = 0.5098	90000

CCCCCCCCCCCCCCCC[N+](C)(C)C.[Br-] + OC1OC[C@@H](O)[C@H](O)[C@H]1O + O
viscosity [mPa·s], 100 kPa
Conditions	298.15 K	308.15 K	318.15 K
x1 = 7.21e-06, x2 = 0	0.896 ± 0.06	0.742 ± 0.06	0.617 ± 0.06
x1 = 1.442e-05, x2 = 0	0.898 ± 0.06	0.744 ± 0.06	0.617 ± 0.06
x1 = 2.162e-05, x2 = 0	0.9 ± 0.06	0.745 ± 0.06	0.617 ± 0.06

C[N+](C)(C)CCO.O=S(=O)([N-]S(=O)(=O)C(F)(F)F)C(F)(F)F + OCCCCCO
101 kPa
Conditions	viscosity [mPa·s]
318.15 K, x2 = 0.2149	37.3 ± 2.1
323.15 K, x2 = 0	39.3 ± 2.2
323.15 K, x2 = 0.2149	31.2 ± 1.8
328.15 K, x2 = 0.2149	26.3 ± 1.5
333.15 K, x2 = 0.2149	22.5 ± 1.3
338.15 K, x2 = 0.4145	16.11 ± 0.95
343.15 K, x2 = 0.6847	12.37 ± 0.74

COC(=O)OC + CCCC[n+]1ccn(C)c1.O=S(=O)([N-]S(=O)(=O)C(F)(F)F)C(F)(F)F
viscosity [mPa·s], 101.3 kPa
Conditions	288.15 K	293.15 K	298.15 K	303.15 K	308.15 K	313.15 K
x2 = 0	0.668 ± 0.015	0.628 ± 0.014	0.588 ± 0.013	0.553 ± 0.012	0.524 ± 0.011	–
x2 = 0.003644	0.699 ± 0.015	0.653 ± 0.014	0.611 ± 0.013	0.575 ± 0.013	0.541 ± 0.012	0.511 ± 0.011
x2 = 0.004269	0.706 ± 0.015	0.659 ± 0.014	0.616 ± 0.013	0.58 ± 0.013	0.545 ± 0.012	0.515 ± 0.011
x2 = 0.005082	0.715 ± 0.016	0.667 ± 0.015	0.624 ± 0.014	0.586 ± 0.013	0.551 ± 0.012	0.52 ± 0.011
x2 = 0.005901	0.722 ± 0.016	0.674 ± 0.015	0.631 ± 0.014	0.593 ± 0.013	0.557 ± 0.012	0.525 ± 0.011
x2 = 0.00751	0.741 ± 0.016	0.69 ± 0.015	0.646 ± 0.014	0.606 ± 0.013	0.57 ± 0.012	0.537 ± 0.012
x2 = 0.008724	0.746 ± 0.016	0.695 ± 0.015	0.651 ± 0.014	0.61 ± 0.013	0.575 ± 0.013	0.541 ± 0.012
x2 = 0.009626	0.749 ± 0.016	0.7 ± 0.015	0.657 ± 0.014	0.617 ± 0.013	0.583 ± 0.013	0.549 ± 0.012
x2 = 0.01106	0.781 ± 0.017	0.727 ± 0.016	0.678 ± 0.015	0.636 ± 0.014	0.597 ± 0.013	0.562 ± 0.012
x2 = 0.012	0.792 ± 0.017	0.737 ± 0.016	0.687 ± 0.015	0.644 ± 0.014	0.605 ± 0.013	0.57 ± 0.012
x2 = 0.01269	0.801 ± 0.017	0.744 ± 0.016	0.695 ± 0.015	0.651 ± 0.014	0.61 ± 0.013	0.576 ± 0.013
x2 = 0.01439	0.817 ± 0.018	0.759 ± 0.017	0.708 ± 0.015	0.663 ± 0.014	0.621 ± 0.014	0.586 ± 0.013
x2 = 0.01534	0.827 ± 0.018	0.768 ± 0.017	0.717 ± 0.016	0.671 ± 0.015	0.629 ± 0.014	0.592 ± 0.013
x2 = 0.01537	0.827 ± 0.018	0.768 ± 0.017	0.717 ± 0.016	0.671 ± 0.015	0.629 ± 0.014	0.592 ± 0.013
x2 = 0.01726	0.847 ± 0.019	0.786 ± 0.017	0.734 ± 0.016	0.686 ± 0.015	0.643 ± 0.014	0.604 ± 0.013
x2 = 0.01986	0.874 ± 0.019	0.811 ± 0.018	0.755 ± 0.016	0.706 ± 0.015	0.662 ± 0.014	0.621 ± 0.014
x2 = 0.02243	0.902 ± 0.02	0.836 ± 0.018	0.778 ± 0.017	0.728 ± 0.016	0.681 ± 0.015	0.641 ± 0.014
x2 = 0.02369	0.914 ± 0.02	0.847 ± 0.019	0.788 ± 0.017	0.736 ± 0.016	0.689 ± 0.015	0.648 ± 0.014
x2 = 0.02616	0.937 ± 0.02	0.869 ± 0.019	0.808 ± 0.018	0.754 ± 0.016	0.706 ± 0.015	0.663 ± 0.014
x2 = 0.02694	0.945 ± 0.021	0.876 ± 0.019	0.814 ± 0.018	0.759 ± 0.017	0.711 ± 0.016	0.668 ± 0.015
x2 = 0.02906	0.968 ± 0.021	0.897 ± 0.02	0.834 ± 0.018	0.778 ± 0.017	0.728 ± 0.016	0.683 ± 0.015
x2 = 0.03392	1.016 ± 0.022	0.94 ± 0.021	0.873 ± 0.019	0.814 ± 0.018	0.76 ± 0.017	0.714 ± 0.016
x2 = 0.03978	1.072 ± 0.023	0.991 ± 0.022	0.921 ± 0.02	0.857 ± 0.019	0.802 ± 0.018	0.751 ± 0.016
x2 = 0.04295	1.102 ± 0.024	1.019 ± 0.022	0.945 ± 0.021	0.88 ± 0.019	0.822 ± 0.018	0.77 ± 0.017
x2 = 0.04638	1.134 ± 0.025	1.048 ± 0.023	0.971 ± 0.021	0.904 ± 0.02	0.845 ± 0.018	0.791 ± 0.017
